Source: US20220145406A1, “BIOMARKERS, AND USES IN TREATMENT OF VIRAL INFECTIONS, INFLAMMATIONS, OR CANCER” (ABIVAX, priority 2018, published 2022)
Where “and” joins values, the source holds several entries; their conditions need not be identical. Identical values can stand only once.

Legend:
miR-429 = assay: RNA CaptureSeq read counts at the control locus miR-429; type: cell-based, human; conditions: PBMCs; control locus outside the miR-124 region
Method: Total RNA was extracted from infected and uninfected PBMC samples using TRIzol reagent (Invitrogen) following the manufacturer's protocol. The RNA concentrations and purity were determined using the RNA 6000 Bioanalyzer kit (Agilent). For cDNA synthesis, 1 μg of total RNA was treated with DNase I (Invitrogen) and then utilized as a template for reverse transcription using the Verso cDNA kit with a blend of random hexamers and anchored oligo-dT (Thermo Scientific), according to the manufacturer's instructions. After KAPA Hyper Prep (ROCHE) library preparation from 1 μg total RNA, we proceeded with SeqCap EZ capture (ROCHE) following the manufacturer's recommendations. […] Sequencing was performed on a NextSeq 500 (Illumina) with 18 samples on a HighOutput Cartridge (2×400 million reads of 75 bases each).
(§1) miR-124 is encoded from three independent genes, miR-124-1, miR-124-2, and miR-124-3, located on human chromosomes 8 and 20 (FIG. 4A). […] The total number of reads for untreated as well as ABX464 treated samples varied between 2 and 30 million in infected and uninfected PBMCs (Table V). The number of reads from the three loci encoding miR-124 in the treated samples were 4- to 12-fold higher than in the untreated samples (FIG. 4B, Table V), confirming that ABX464 led to a large increase in miR-124. […]

HIV-1 YU-2 strain = assay: HIV-1 replication measured by p24 production in infected PBMCs; type: cell-based; conditions: Human immunodeficiency virus 1, PBMC; 5 μM ABX464; PBMCs from 6 donors infected with YU-2 strain; read-out: inhibition of viral replication (p24 production)
Method: Buffy coats from HIV-negative individuals were obtained from the local blood donation center in Centre de transfusion sanguine Montpellier. Human peripheral blood mononuclear cells (PBMCs) were isolated by Ficoll (Histopaque, Sigma) gradient centrifugation. CD4+ and CD8+ T cells were purified from PBMCs after Ficoll gradient centrifugation by Human CD4+ beads positive selection and CD8+ beads positive selection, respectively (Miltenyi). PBMCs, CD4+ and CD8+ T cells were grown at 37° C. and 5% CO2 to a density of 1.5×10^6 cells/ml in RPMI GlutaMAX medium (Life Technologies) supplemented with 10% fetal calf serum (FCS) (Thermo Fisher), 40 U/ml of IL2 (PeproTech) and 5 μg/mL of PHA (Roche) for 2 days. […]
PBMCs from 6 HIV-negative donors were infected with the YU-2 strain, followed by treatment with ABX464. […] To highlight potential new splicing events induced by ABX464, we used a custom bioinformatics pipeline with the main step involving the assembly of putative transcripts from targeted RNA sequencing reads to construct contigs (Illumina paired-end 2×75 bp) (FIGS. 6 A and B). […] The HIV profiling datasets used in our analysis yielded high sequence coverage (2 to 30 million reads for the 9 kb genome), allowing deep quantification of HIV splice variants.

[1] = tested on: miR-124 (miR-124-1, miR-124-2, miR-124-3 loci); assay: RNA CaptureSeq read counts at the miR-124 loci in PBMCs; type: cell-based, human; conditions: PBMCs treated with ABX464
Method: Total RNA was extracted from infected and uninfected PBMC samples using TRIzol reagent (Invitrogen) following the manufacturer's protocol. The RNA concentrations and purity were determined using the RNA 6000 Bioanalyzer kit (Agilent). For cDNA synthesis, 1 μg of total RNA was treated with DNase I (Invitrogen) and then utilized as a template for reverse transcription using the Verso cDNA kit with a blend of random hexamers and anchored oligo-dT (Thermo Scientific), according to the manufacturer's instructions. After KAPA Hyper Prep (ROCHE) library preparation from 1 μg total RNA, we proceeded with SeqCap EZ capture (ROCHE) following the manufacturer's recommendations. Hybrid selection was performed with a custom SeqCap EZ Choice Library (Roche NimbleGen) containing the following regions; chromosome 8 (9,760,617 to 9,761,780 and 65,285,285 to 65,296,944). chromosome 20 (61,797,549 to 61,812,855), chromosome 1 (1,102,000 to 1,106,000), chromosome 13 (92,000,074 to 92,006,833), chromosome 15 (22,512,831 to […]) and the genome of the HIV Ada8 strain. This library was designed through the NimbleDesign portal (v1.2.R1) using genome build hg19 NCBI Build 37.1/GRCh37. Sequencing was performed on a NextSeq 500 (Illumina) with 18 samples on a HighOutput Cartridge (2×400 million reads of 75 bases each).
as §1, with “4A). To determine which of these genes is induced by ABX464, we employed targeted RNA CaptureSeq to assess the full depth of the transcriptome.” for “4A).”

FC(F)(F)Oc1ccc(Nc2ccc3cccc(Cl)c3n2)cc1 [ABX464, 8-chloro-N-(4-(trifluoromethoxy)phenyl)quinolin-2-amine]
expression of miR-429 (miR-429): no effect
inhibition at 5 µM (HIV-1 YU-2 strain): > 70%
read counts mir124.2 ([1]; one value per donor library): 704 and 4 and 4222 and 362 and 2326 and 5452
read counts mir124.3 ([1]; one value per donor library): 6439 and 701 and 21941 and 2542 and 14460 and 7772
read counts mir124.1 ([1]; one value per donor library (D1, D4-D8)): 4014 and 7114 and 4748 and 324 and 2486 and 1088
